Test results published in paper PMC10992699, “Comparative structure activity and target exploration of 1,2-diphenylethynes in Haemonchus contortus and Caenorhabditis elegans” (International Journal for Parasitology: Drugs and Drug …, 2024).
Where two headings read alike, the source gives them in different places.

How the values were obtained:
[1] = test system: H. contortus xL3s; assay: H. contortus xL3 motility dose-response assay; format: cell-based, Haemonchus contortus; details: for IC50: read-out: Worm motility IC50 ± SD, H. contortus xL3s; for fold increased activity compared to UMW-9729, H. contortus larvae: ratio of xL3 motility IC50 to parent UMW-9729
Protocol: Immediately prior to use in assays, H. contortus L3s were exsheathed via exposure to 0.15 % (v/v) sodium hypochlorite for 20 min at 38 °C ([Preston et al., 2015]), achieving an exsheathment rate of 90 %. The larvae were then immediately washed five times with 50 mL of sterile physiological saline (pH 7.0) by centrifugation at 2000×g (5 min) and resuspended (at a concentration of 300 xL3s per 50 μL) in sterile (autoclaved) lysogeny broth (LB; cf. [Bertani, 1951]; [Taki et al., 2021b]), supplemented with final concentrations of 100 IU/mL of penicillin, 100 μg/mL of streptomycin and 0.25 μg/mL of amphotericin B (Fungizone®, cat. No. 15240-062, Gibco, Thermo Fisher Scientific, Waltham, MA, USA); this supplemented LB was designated LB*.
The dose-response assay for H. contortus followed a well-established protocol ([Taki et al., 2021b]); it was employed to evaluate the potency of hit compounds against this nematode. Test compounds were assessed individually for an effect on the motility of xL3s (10-point, 2-fold serial dilution in LB*, 40 μM–[…]). […] A solution of LB* was used as a negative control. The test compounds and positive control compounds (monepantel and moxidectin) were arrayed in triplicate across individual flat-bottom 96-well microplates, with six wells on each plate containing the negative control. Added to each well were 300 xL3s of H. contortus in 50 μL of LB* to give a final volume of 100 μL. Plates were then placed in a CO2 incubator (10 % (v/v) CO2, 38 °C, >90 % humidity; Forma, model no. 311, Thermo Fisher Scientific, USA). […] Over a period of 15 min, disturbance of an infrared beam in individual wells was recorded as an ‘activity count’. Raw ‘activity counts’ for individual wells were normalised to the negative-controls. The compound concentrations were log10-transformed and fitted using a variable slope four-parameter equation, using the ordinary least squares fit model, employing Prism (v.9.1.0 GraphPad Software, San Diego, CA, USA). Larval development was established at 168 h of incubation with compound, as described previously ([Preston et al., 2015]). The phenotypes of larvae were examined using a microscope ([Preston et al., 2015]) and recorded.

[2] = test system: C. elegans young adults; assay: C. elegans young adult motility dose-response assay; format: cell-based, Caenorhabditis elegans; details: for IC50: read-out: Worm motility IC50 ± SD, C. elegans young adults
Protocol: The eggs were then washed five times with 15 mL of sterile M9 buffer (centrifugation at 500×g, 2 min). […] were collected from plates and washed twice with sterile M9 buffer by centrifugation (500×g, 2 min) to remove E. coli OP50, and then resuspended to a concentration of 100 larvae per 50 μL in sterile (autoclaved) LB*. The dose-response assay for C. elegans followed a well-established protocol ([Taki et al., 2021a]) and was employed to evaluate the potency of hit compounds against this nematode. […] Two compounds, monepantel (ZolvixTM; Elanco, Australia) and moxidectin ([…], France) were used as positive controls and prepared in the same manner as the test compounds. […] The test compounds and positive control compounds were arrayed in triplicate across individual flat-bottom 96-well microplates (cat. no. 3596; Corning, Corning, NY, USA), with six wells on each plate containing the negative control. Added to each well were 100 C. elegans in 50 μL of LB* to give a final volume of 100 μL. Plates were then placed in an incubator ([…], model no. IMP180, Thermo Fisher Scientific, USA) at 20 °C for 40 h. […] Over 15 min, disturbance of an infrared beam in individual wells was recorded as an 'activity count'. Raw 'activity counts' for each well were normalised to the negative controls. The compound concentrations were log10-transformed and fitted using a variable slope four-parameter equation, using the ordinary least squares fit model, employing the program Prism (v.9.1.0 GraphPad Software, San Diego, CA, USA).

[3] = test system: adult females of Haemonchus contortus; assay: Motility of adult female H. contortus in vitro; format: cell-based; details: 40 μM
Protocol: Adult H. contortus were collected from the abomasa of sheep infected for 10 weeks, washed extensively with phosphate-buffered saline (PBS, pH 7.4) and subsequently in RPMI 1640 media supplemented with final concentrations of 2 mM L-glutamine, 100 IU/mL of penicillin, 100 μg/mL of streptomycin and 0.25 μg/mL of amphotericin B (Thermo Fisher Scientific, Scoresby, VIC, Australia; this supplemented RPMI was designated RPMI*). Female and male worms were collected and separated immediately prior to compound testing.
The activity of UMW-9729 and six derivatives (12, 14, 15, 16, 18 and 25) was assessed on adult female specimens of H. contortus in an established assay ([Taki et al., 2020]). The compound was added in triplicate to the wells of a 24-well plate (cat. no. 3524; Corning, USA) at a concentration of 40 μM in 500 μL of RPMI* (RPMI supplemented with final concentrations of 2 mM L-glutamine, 100 IU/mL of penicillin, 100 μg/mL of streptomycin and 0.25 μg/mL of amphotericin B; Thermo Fisher Scientific, Scoresby, VIC, Australia). Two positive-control compounds, monepantel and moxidectin, and a negative control containing 1 % (v/v) DMSO only, were included in triplicates on the same plate. Three adult females were added to each of the triplicate wells containing either the test compound or the controls and placed in a CO2 incubator (10 % (v/v) CO2, 40 °C, >90 % relative humidity) for 1 day. A video recording (30 s) of each well was taken at 3 h, 6 h, 12 h and 24 h during the total incubation period to assess the reduction in worm motility, which was scored as 3 (“good”), 2 (“low”), 1 (“very low”) or 0 (“no movement”; cf. [Taki et al., 2020]). For each test or control compound, the motility scores for each of the triplicate wells were calculated, normalised with reference to the negative control (100 % motility) and recorded as a percentage.

[4] = Haemonchus contortus, 90 h, xL3s, 90 h incubation (table title), three independent assays in triplicate
[5] = Caenorhabditis elegans, 40 h, young adults, 40 h incubation, three independent assays in triplicate
[6] = xL3s, 90 h incubation (table title), three independent assays in triplicate
[7] = young adults, 40 h incubation, three independent assays in triplicate
[8] = 24 h of incubation, normalised to negative control

SMILES | IC50 [1, 4] [µM] | IC50 [2, 5] [µM] | other results
COc1ccccc1C#Cc1ccc(-c2ccn[nH]2)cc1 [Compound 6] | > 40 | > 40 | 
Clc1ccccc1C#Cc1ccc(-c2ccn[nH]2)cc1 [Compound 9] | 4.8 ± 0.7 | > 40 | 
FC(F)(F)c1cccc(C#Cc2ccc(-c3ccn[nH]3)cc2)c1 [Compound 12] | 8.2 ± 1.9 | 12 ± 7 | reduction of worm motility, adult females of H. contortus [3, 8]: 29%
Fc1cccc(C#Cc2ccc(-c3ccn[nH]3)cc2)c1 [Compound 14] | 5.2 ± 0.9 | 9 | IC50 [2, 7]: 8 ± 1.8 µM; reduction of worm motility, adult females of H. contortus [3, 8]: 29%
Cc1ccc(C#Cc2ccc(-c3ccn[nH]3)cc2)cc1 [Compound 18] | 2 ± 0.1 | > 40 | fold increased activity compared to UMW-9729, H. contortus larvae [1]: 3 fold; Worm motility IC50 ± SD, C. elegans young adults [2, 7]: inactive; reduction of worm motility, adult females of H. contortus [3, 8]: 15%
COc1ccc(C#Cc2ccc(-c3ccn[nH]3)cc2)cc1 [Compound 19] | > 40 | > 40 | Worm motility IC50 ± SD, H. contortus xL3s [1, 6]: inactive
N#Cc1ccc(C#Cc2ccc(-c3ccn[nH]3)cc2)cc1 [Compound 21] | 6.7 ± 4.2 | > 40 | 
C[Si](C)(C)C#Cc1ccc(-c2ccn[nH]2)cc1 [Compound 23] |  |  | IC50 ([1]; Haemonchus contortus, 90 h): > 40 µM; Worm motility IC50 ± SD, H. contortus xL3s [1, 6]: complete loss of activity; IC50 ([2]; Caenorhabditis elegans, 40 h): > 40 µM
C(#Cc1ccc(-c2ccn[nH]2)cn1)c1ccccc1 [Compound 24] | 24 ± 8.5 | > 40 | Worm motility IC50 ± SD, C. elegans young adults [2, 7]: loss in activity
Cn1nccc1-c1ccc(C#Cc2ccccc2)cc1 [Compound 25] |  |  | fold increased activity compared to UMW-9729, H. contortus larvae [1]: 3 fold; Maximum motility inhibition (MMI), H. contortus xL3s ([1]; xL3s, 90 h incubation (table title)): 73%; IC50 [1, 6]: 1.9 ± 0.14 µM; Worm motility IC50 ± SD, C. elegans young adults [2, 7]: inactive; IC50 [2, 7]: > 40 µM; reduction of worm motility, adult females of H. contortus ([3]; 3 h time point): did not display a reduction in motility; reduction of worm motility, adult females of H. contortus ([3]; 6 h time point): did not display a reduction in motility; reduction of worm motility, adult females of H. contortus ([3]; 12 h time point): did not display a reduction in motility
C#Cc1ccc(-c2ccn[nH]2)cc1 [Compound 27, 5-(4-ethynylphenyl)-1H-pyrazole] | > 40 | > 40 | Worm motility IC50 ± SD, H. contortus xL3s [1, 6]: complete loss of activity
Cc1nc(-c2ccc(C#Cc3ccccc3)cc2)no1 [Compound 32] | 5.1 ± 0.5 | 18 ± 11 | 
C[C@](C#N)(COc1cc(C#N)ccc1C(F)(F)F)NC(=O)c1ccc(SC(F)(F)F)cc1 [Monepantel, monepantel, reference compound] | 0.6 ± 0.2 | 0.03 ± 0.01 | 

Further lines, with some results ahead:

IC50 [1, 4] [µM] | IC50 [2, 5] [µM] | SMILES | other results
> 40 | > 40 | FC(F)(F)c1ccccc1C#Cc1ccc(-c2ccn[nH]2)cc1 [Compound 7] | 
12 | 3.7 ± 1.9 | Fc1ccccc1C#Cc1ccc(-c2ccn[nH]2)cc1 [Compound 8] | IC50 [1, 6]: 13 ± 4.5 µM
8.7 ± 2.5 | > 40 | C(#Cc1ccccn1)c1ccc(-c2ccn[nH]2)cc1 [Compound 10] | Worm motility IC50 ± SD, C. elegans young adults [2, 7]: loss of compound activity
13 ± 5.7 | > 40 | Cc1cccc(C#Cc2ccc(-c3ccn[nH]3)cc2)c1 [Compound 11] | Worm motility IC50 ± SD, C. elegans young adults [2, 7]: lost activity
> 40 | > 40 | FC(F)(F)Oc1cccc(C#Cc2ccc(-c3ccn[nH]3)cc2)c1 [Compound 13] | 
> 40 | 8.2 ± 7.8 | Clc1cccc(C#Cc2ccc(-c3ccn[nH]3)cc2)c1 [Compound 15] | Worm motility IC50 ± SD, H. contortus xL3s [1, 6]: loss of activity; fold increased activity compared to UMW-9729, C. elegans ([2]; ratio of motility IC50 to parent UMW-9729): ~2 fold; reduction of worm motility, adult females of H. contortus [3, 8]: 23%
6.8 ± 0.1 | > 40 | C(#Cc1cccnc1)c1ccc(-c2ccn[nH]2)cc1 [Compound 16] | Worm motility IC50 ± SD, H. contortus xL3s [1, 6]: equipotent; Worm motility IC50 ± SD, C. elegans young adults [2, 7]: loss of activity; reduction of worm motility, adult females of H. contortus [3, 8]: 15%
29 ± 12 | 25 ± 7 | Oc1cccc(C#Cc2ccc(-c3ccn[nH]3)cc2)c1 [Compound 17] | 
3.7 ± 1.1 | > 40 | Clc1ccc(C#Cc2ccc(-c3ccn[nH]3)cc2)cc1 [Compound 20] | 
> 40 | > 40 | C(#Cc1ccc(-c2ccn[nH]2)cc1)c1ccncc1 [Compound 22] | Worm motility IC50 ± SD, H. contortus xL3s [1, 6]: inactive
> 40 | > 40 | C(#Cc1cccc(-c2ccn[nH]2)c1)c1ccccc1 [Compound 26, 5-(3-(phenylethynyl)phenyl)-1H-pyrazole] | Worm motility IC50 ± SD, H. contortus xL3s [1, 6]: complete loss of activity
16 ± 4.9 | > 40 | c1ccc(CCc2ccc(-c3ccn[nH]3)cc2)cc1 [Compound 28] | 
18 ± 9.1 | 0.003 | CO/N=C1\C[C@]2(C[C@@H]3C[C@@H](C/C=C(\C)C[C@@H](C)/C=C/C=C4\CO[C@@H]5[C@H](O)C(C)=C[C@@H](C(=O)O3)[C@]45O)O2)O[C@H](/C(C)=C/C(C)C)[C@H]1C [Moxidectin, moxidectin, reference compound] | 
